Results published in US20190029301A1, “USE OF LONG-TERM FASTING MIMICKING AS DIETARY TREATMENT FOR MULTIPLE MYELOMA AND OTHER CANCERS” (UNIVERSITY OF SOUTHERN CALIFORNIA, priority 2016, published 2019).

Key:
multiple myeloma [1] = details: cited from earlier work
[2] = cited from earlier work
[3] = side effects / peripheral neuropathy in the treated multiple myeloma patient; type: in vivo, human
Procedure: The patient had previously only used IV bortezomib, since it had been effective up to that point. Resistance to bortezomib is thought to result from overproduction of proteosomal subunits, that then require a higher concentration of drug before enough subunits are blocked to reduce the degradation of misfolded myeloma antibodies. The highest recommended dose of bortezomib is 1.3 mg/m^2, since the next higher dose of 1.7 mg/m^2 regularly produces grade 3-4 peripheral neuropathy. […] The patient reasoned that reducing the toxicity of bortezomib by using SubQ rather than IV and using the FMED to induce protective stress-resistance pathways in their neural and supporting glial cells might allow the use of “toxic” doses of bortezomib. […] The first two cycles were performed to verify whether the approach worked. […] Since the “toxic” bortezomib dose was essentially monotherapy, a different IMID was added for a third cycle in the hope that the patient's MM cells would be sensitive and one would be treating with at least two drugs. One third of patients resistant to lenalidomide respond to pomalidomide, which was thus added during the third cycle.

multiple myeloma [4] = assay: free kappa light chain tumor marker in a multiple myeloma patient (case report); type: in vivo, human; details: for response of free kappa light chain tumor marker / myeloma cells to the regimen: single patient, successive regimens 2006-2012 and later
[5] = Biaxin competes for the liver detoxification system that inactivates dexamethasone; cited from earlier work
[6] = SubQ compared with IV bortezomib

CC(C)C[C@H](NC(=O)[C@H](Cc1ccccc1)NC(=O)c1cnccn1)B(O)O [bortezomib]
effectiveness of SubQ versus IV administration (multiple myeloma [1]; [6]): as effective as IV bortezomib | side effects of SubQ versus IV administration [2, 6]: reduced side effects | peripheral neuropathy grade ([2]; dose of 1.7 mg/m^2): 3-4 | side-effects ([3]; subcutaneous bortezomib 1.7 mg/m^2 with FMED): minimal side-effects | peripheral neuropathy progression ([3]; three cycles of SubQ "toxic" bortezomib + FMED (pomalidomide added in third cycle)): only minor progression | tumor markers response (multiple myeloma [4]; SubQ bortezomib at "toxic" dose 1.7 mg/m^2 combined with FMED, FIG. 3): rapid drop | bortezomib sensitivity (multiple myeloma [4]; subcutaneous bortezomib 1.7 mg/m^2 with FMED, bortezomib-resistant patient): restore bortezomib sensitivity

Nc1cccc2c1CN(C1CCC(=O)NC1=O)C2=O (centres unmarked) [revlimid, lenalidomide]
response of free kappa light chain tumor marker / myeloma cells to the regimen (multiple myeloma [4]): developed resistance

Nc1cccc2c1C(=O)N(C1CCC(=O)NC1=O)C2=O (centres unmarked) [pomalidomide]
fraction of patients resistant to lenalidomide that respond (multiple myeloma [1]; lenalidomide-resistant patients): One third

CC[C@H]1OC(=O)[C@H](C)[C@@H](O[C@H]2C[C@@](C)(OC)[C@@H](O)[C@H](C)O2)[C@H](C)[C@@H](O[C@@H]2O[C@H](C)C[C@H](N(C)C)[C@H]2O)[C@](C)(OC)C[C@@H](C)C(=O)[C@H](C)[C@@H](O)[C@]1(C)O [Biaxin]
half-life of dexamethasone [5]: increases

CC(C)C[C@H](NC(=O)[C@H](CCc1ccccc1)NC(=O)CN1CCOCC1)C(=O)N[C@@H](Cc1ccccc1)C(=O)N[C@@H](CC(C)C)C(=O)[C@@]1(C)CO1 [carfilzomib]
response of free kappa light chain tumor marker / myeloma cells to the regimen (multiple myeloma [4]): ineffective
